What was measured:
[1] = system: CDK5/p25 complex; design: method as in PMID 15828833; details: read-out: IC50 against CDK5/p25 complex; cited from earlier work
[2] = biological target: T1, TOP1 (Homo sapiens, UniProt P11387); test: TOP1-mediated DNA relaxation assay; format: biochemical; details: 3 μM topotecan; increasing concentrations of (S)- and (R)-PHA533533; vs DMSO
T1 construct: purchased TopoGEN
T1 sequence (P11387 1-765): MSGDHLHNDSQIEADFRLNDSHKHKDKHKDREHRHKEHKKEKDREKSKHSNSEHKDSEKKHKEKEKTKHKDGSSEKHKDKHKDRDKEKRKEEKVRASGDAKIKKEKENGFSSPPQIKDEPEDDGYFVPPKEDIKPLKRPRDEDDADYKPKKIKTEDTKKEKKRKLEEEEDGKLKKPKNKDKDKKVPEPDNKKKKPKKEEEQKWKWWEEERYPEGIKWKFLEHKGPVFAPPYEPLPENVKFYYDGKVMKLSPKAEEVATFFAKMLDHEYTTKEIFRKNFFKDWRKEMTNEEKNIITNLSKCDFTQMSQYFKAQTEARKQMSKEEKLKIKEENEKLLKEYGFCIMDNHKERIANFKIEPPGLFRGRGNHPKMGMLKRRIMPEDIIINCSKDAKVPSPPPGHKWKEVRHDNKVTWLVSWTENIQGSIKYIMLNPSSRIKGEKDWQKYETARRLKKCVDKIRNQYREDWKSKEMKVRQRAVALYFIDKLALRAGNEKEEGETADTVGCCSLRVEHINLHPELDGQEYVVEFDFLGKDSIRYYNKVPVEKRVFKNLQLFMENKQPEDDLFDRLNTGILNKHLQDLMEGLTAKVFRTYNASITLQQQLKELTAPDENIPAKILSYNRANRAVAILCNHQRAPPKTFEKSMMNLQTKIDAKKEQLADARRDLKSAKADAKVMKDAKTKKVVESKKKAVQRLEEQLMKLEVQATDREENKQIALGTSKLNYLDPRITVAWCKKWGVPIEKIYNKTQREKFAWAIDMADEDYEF
Text: […]. […] […]. […] […]. […] […].
The Pfizer chemogenetic library and PHA533533 derivatives were provided by the Compound Transfer Program (CTP) at Pfizer. Topotecan hydrochloride salt was purchased from Cayman Chemicals (Item No. 14129). […] […]. The Human Topoisomerase I Assay Kit was purchased from TopoGEN and performed according to the manufacturer’s protocols.

[3] = system: CDK2/cyclin E; design: method as in PMID 15828833; details: read-out: IC50 against CDK2/cyclin E; cited from earlier work
[4] = system: Ube3a-ATS; test: quantitative RT-PCR of Ube3a-ATS in Ube3a m-/p+ primary neurons; format: cell-based, mouse; details: 72 h at DIV7; 0.3 µM topotecan, 1 µM (S)- or (R)-PHA533533, 0.1 µM 2, 0.1 µM 3, 0.3 µM (±)-4, 5 µM (S,R)-5
[5] = cytotoxicity (% viable DAPI/NeuN neurons vs DMSO) in mouse primary neurons; format: cell-based; details: primary cortical neurons from E15.5 mouse embryos, mean ± SEM, n = 3
Protocol: Immunofluorescence for high-content imaging analysis was performed as previously described with slight modifications. Following drug treatment at DIV7, primary neurons were fixed at DIV10 with 4% paraformaldehyde in PBS at room temperature (RT) for 10 min. After three brief washes in PBS, neurons were permeabilized with PBS/1% Triton-X-100 at RT for 10 min, followed by blocking with PBS including 5% normal goat serum and 0.2% Triton-X-100 (NGST) at RT. […] All acquired images were analyzed by CellProfiler[48]. The mean GFP signal from each drug-treated well was normalized to the average mean GFP signal from DMSO-treated neurons. […] Fluorescent images were acquired using a Nikon Ti2 eclipse fluorescence microscope (Nikon Instruments Inc.) and analyzed using Nikon NIS-Elements software (Nikon Instruments Inc.). Antibody-enhanced UBE3A-YFP fluorescence intensities were determined from DAPI and NeuN double-positive neurons in drug-treated wells and normalized to neurons in DMSO-treated wells. The cytotoxicity of a compound was determined by calculating the percentage of neurons (DAPI and NeuN double-positive cells) alive in drug-treated wells compared to the DMSO-treated wells. For determining the effectiveness of unsilencing, the percent neurons expressing GFP signal in neurons (DAPI and NeuN double-positive cells) in drug-treated wells was thresholded such that the percent GFP positive neurons in DMSO-treated wells was set to ~5%. Concentrations where more than 10% of neurons were dead compared to DMSO-treated wells were manually removed and the last included data point was set as a maximum efficacy. Sigmoidal curve fitting for the dose-response analysis was performed using GraphPad Prism software version 8.0 (GraphPad Software).

[6] = system: UBE3A mRNA; design: method as in Sen et al.3; details: 11-week human cortical organoids, 72 hours, 1M topotecan, ref Sen et al.3; cited from earlier work
[7] = system: Snord115; details: 72 h at DIV7; 0.3 µM topotecan, 1 µM (S)- or (R)-PHA533533, 0.1 µM 2, 0.1 µM 3, 0.3 µM (±)-4, 5 µM (S,R)-5
Protocol: (§1) Next, 1 ml of Neurobasal Plus medium (A3582901, ThermoFisher) containing 5% FBS (TMS-013-B; MilliporeSigma) was added to the cortical mixture to deactivate the papain and subsequently triturated. […] Isolated cortical neurons were plated onto poly-D-lysine coated 384-well plates at 2 × 10^4 cell/well for screening and dose-response assays, or 6-well plates at 1 × 10^6 cell/well for molecular and biochemical assays (western blot, ASO-dependent knock-down, and quantitative RT-PCR).
(§2) For RNA isolation, cultured cortical neurons were lysed using 350 μl of RLT lysis buffer (Qiagen) per well on a 6-well plate. For isolating RNA from mouse brain tissue, microdissected brain regions were snap-frozen in liquid nitrogen and stored at −80 °C until the day of RNA extraction, and then lysed using RLT lysis buffer containing 1% of β-mercaptoethanol. Total RNA was extracted from both cultured cells and brain tissue using RNeasy Mini kit (Qiagen). cDNA was synthesized from 1 μg of total RNA using qScript cDNA Supermix (Quantabio). 1/25 of synthesized cDNA was used per qPCR reaction together with PowerUp SYBR Green Master Mix (A25742, Applied Biosystems) and a specific primer pair (Table 2). qPCR was performed in a QuantStudio 5 Real-Time PCR system (Applied Biosystems). The specificity of the amplification products was verified by melting curve analysis. All qPCRs were conducted in technical triplicates, and the results were averaged for each sample, normalized to Gapdh expression, and analyzed using the comparative CT method (∆∆CT).

[8] = system: Snrpn; details: 72 h at DIV7; 0.3 µM topotecan, 1 µM (S)-PHA533533, 0.1 µM 2, 0.1 µM 3, 0.3 µM (±)-4, 5 µM (S,R)-5
Protocol: as §1, §2

[9] = system: Snord116; details: 72 h at DIV7; 0.3 µM topotecan, 1 µM (S)-PHA533533, 0.1 µM 2, 0.1 µM 3, 0.3 µM (±)-4, 5 µM (S,R)-5
Protocol: as §1, §2

Row | SMILES | IC50 [1] [nM] | inhibition of TOP1 catalytic activity to relax supercoiled DNA [2] | IC50 [3] [nM] | relative quantity of Ube3a-ATS vs DMSO [4] | CC50 at 72 h [5] [nM] | increase of UBE3A mRNA levels [6] [fold] | relative quantity of Snord115 vs DMSO [7] | relative quantity of Snrpn vs DMSO [8] | relative quantity of Snord116 vs DMSO [9]
1 | C[C@H](C(=O)Nc1cc(C2CC2)[nH]n1)c1ccc(N2CCCC2=O)cc1 [(S)-PHA533533] | 65 | had no effect on the TOP1 activity | 55 | – | – | – | – | – | –
2 | CC[C@@]1(O)C(=O)OCc2c1cc1n(c2=O)Cc2cc3c(CN(C)C)c(O)ccc3nc2-1 [Topotecan, reference compound] | – | clearly inhibited TOP1 catalytic activity | – | downregulated | 2130 ± 620 | 1.8 | significantly reduced | significantly reduced | without affecting

From PMC11231141, “Ube3a unsilencer for the potential treatment of Angelman syndrome” (Nature Communications, 2024)
